From the supplement of paper PMC10307832

What follows are cell lines tested with C(C(=O)C(=O)O)Br [Bromopyruvate] + Nc1ncn([C@H]2C[C@H](O)[C@@H](CO)O2)c(=O)n1 [Decitabine] (partner 2 µM) (assay: relative viability (nuclei count vs DMSO), 5 days (fraction); higher = more cells survive). Conditions: first compound 100 µM.
Method in brief: (§1)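 One day after seeding in 1536-well plates, lung cancer cell lines were dosed by pin tool. Dosing was either single-drug or a fixed anchor-drug dose plus five library-drug doses (not always all listed) in √10 steps. After 5 days, nuclei were stained in one fix-and-stain step and counted on 4× images, and relative viability is the nuclei count of treated wells over that of vehicle wells, given as the median of duplicate plates.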

Row | Cell Line | relative viability
1 | HCC-44 | 0.908
2 | A549 | 0.266
3 | SW 900 | 0.449
4 | LU99A | 0.95
5 | NCI-H1648 | 0.491
6 | NCI-H1395 | 0.707
7 | NCI-H1793 | 0.516
8 | NCI-H1944 | 0.44
9 | ABC-1 | 0.885
10 | NCI-H358 | 0.238

The cell lines below were run with CC(O)(CS(=O)(=O)c1ccc(F)cc1)C(=O)Nc1ccc(C#N)c(C(F)(F)F)c1 [Bicalutamide] + C[C@@H](Oc1cc(-c2cnn(C3CCNCC3)c2)cnc1N)c1c(Cl)ccc(F)c1Cl [Crizotinib] (partner 1 µM) in the same assay as above. Conditions: first compound 0.08 µM.
Method in brief: as §1

Row | Cell Line | relative viability
11 | NCI-H838 | 0.823
12 | NCI-H1650 | 0.892
13 | EBC-1 | 0.166
14 | NCI-H1703 | 0.621
15 | NCI-H2009 | 1.01
16 | PC-14 | 0.958
17 | LCLC-103H | 1.06
18 | NCI-H596 | 0.898
19 | NCI-H2228 | 0.443
20 | EMC-BAC-2 | 0.781
21 | NCI-H2087 | 1
22 | Calu-6 | 0.865
23 | HCC-366 | 0.599
24 | NCI-H1666 | 1.13
25 | NCI-H647 | 1.11
26 | LK-2 | 0.252
27 | NCI-H2126 | 1.06
28 | SK-MES-1 | 1.03

Row | Cell Line | relative viability
29 | H3255 | 0.963
30 | COR-L23 | 0.678
31 | COR-L 105 | 0.874
32 | IA-LM | 1.14
33 | LOU-NH91 | 0.726
34 | ChaGo-K-1 | 1.27
35 | NCI-H2170 | 1.12
36 | NCI-H3122 | 0.281
37 | HOP-62 | 0.807
38 | HCC-44 | 0.838
39 | A549 | 0.738
40 | LU99A | 0.65
41 | NCI-H1299 | 0.969
42 | CAL-12T | 0.785
43 | NCI-H1563 | 0.863
44 | NCI-H1944 | 1.07
45 | ABC-1 | 1.15
46 | NCI-H358 | 0.831

Same assay, conditions: first compound 0.253 µM

Row | Cell Line | relative viability
47 | NCI-H838 | 0.762
48 | NCI-H1650 | 0.937
49 | EBC-1 | 0.185
50 | NCI-H1703 | 0.511
51 | NCI-H2009 | 1.01
52 | NCI-H1993 | 0.83
53 | PC-14 | 0.972
54 | LCLC-103H | 1.04
55 | NCI-H596 | 1.51
56 | NCI-H2228 | 0.52
57 | EMC-BAC-2 | 0.716
58 | NCI-H2087 | 0.993
59 | Calu-6 | 0.795
60 | HCC-366 | 0.473
61 | NCI-H1666 | 0.969
62 | NCI-H647 | 1.23
63 | LK-2 | 0.209
64 | NCI-H2126 | 0.983
65 | SK-MES-1 | 0.902

Row | Cell Line | relative viability
66 | H3255 | 0.845
67 | COR-L23 | 0.552
68 | COR-L 105 | 0.728
69 | IA-LM | 0.819
70 | LOU-NH91 | 0.681
71 | ChaGo-K-1 | 1.1
72 | NCI-H2170 | 1.18
73 | NCI-H3122 | 0.26
74 | HOP-62 | 0.936
75 | HCC-44 | 0.817
76 | A549 | 0.708
77 | LU99A | 0.451
78 | NCI-H1299 | 0.93
79 | CAL-12T | 0.556
80 | NCI-H1563 | 0.861
81 | NCI-H1944 | 0.982
82 | ABC-1 | 1.09
83 | NCI-H358 | 0.616

Same assay, conditions: first compound 0.8 µM

Row | Cell Line | relative viability
84 | NCI-H838 | 0.833
85 | NCI-H1650 | 0.979
86 | EBC-1 | 0.186
87 | NCI-H1703 | 0.624
88 | NCI-H2009 | 1.04
89 | NCI-H1993 | 0.978
90 | PC-14 | 0.899
91 | LCLC-103H | 1
92 | NCI-H596 | 1.08
93 | NCI-H2228 | 0.754
94 | EMC-BAC-2 | 0.904
95 | NCI-H2087 | 0.887
96 | Calu-6 | 0.914
97 | HCC-366 | 0.698
98 | NCI-H1666 | 1.15
99 | NCI-H647 | 1.56
100 | LK-2 | 0.2
101 | NCI-H2126 | 1.06
102 | SK-MES-1 | 1.02

Row | Cell Line | relative viability
103 | H3255 | 1.05
104 | COR-L23 | 0.703
105 | COR-L 105 | 0.661
106 | IA-LM | 0.88
107 | LOU-NH91 | 0.766
108 | ChaGo-K-1 | 1.16
109 | NCI-H2170 | 1.39
110 | NCI-H3122 | 0.277
111 | HOP-62 | 1.33
112 | HCC-44 | 0.832
113 | A549 | 0.917
114 | LU99A | 0.602
115 | NCI-H1299 | 0.957
116 | CAL-12T | 0.67
117 | NCI-H1563 | 0.794
118 | NCI-H1944 | 1.28
119 | ABC-1 | 1.16
120 | NCI-H358 | 0.44

Same assay, conditions: first compound 2.53 µM

Row | Cell Line | relative viability
121 | NCI-H838 | 0.602
122 | NCI-H1650 | 0.992
123 | EBC-1 | 0.185
124 | NCI-H1703 | 0.397
125 | NCI-H2009 | 0.973
126 | NCI-H1993 | 0.778
127 | PC-14 | 0.904
128 | LCLC-103H | 1.02
129 | NCI-H596 | 1.04
130 | NCI-H2228 | 0.463
131 | EMC-BAC-2 | 0.586
132 | NCI-H2087 | 0.971
133 | Calu-6 | 0.727
134 | HCC-366 | 0.328
135 | NCI-H1666 | 0.794
136 | NCI-H647 | 0.777
137 | LK-2 | 0.225
138 | NCI-H2126 | 0.945
139 | SK-MES-1 | 1.01

Row | Cell Line | relative viability
140 | H3255 | 0.719
141 | COR-L23 | 0.449
142 | COR-L 105 | 0.448
143 | IA-LM | 1.02
144 | LOU-NH91 | 0.744
145 | ChaGo-K-1 | 1.03
146 | NCI-H2170 | 1.18
147 | NCI-H3122 | 0.281
148 | HOP-62 | 1
149 | HCC-44 | 0.968
150 | A549 | 0.485
151 | LU99A | 0.362
152 | NCI-H1299 | 0.911
153 | CAL-12T | 0.396
154 | NCI-H1563 | 0.743
155 | NCI-H1944 | 1.12
156 | ABC-1 | 0.848
157 | NCI-H358 | 0.399

What follows are cell lines tested with C(C(=O)C(=O)O)Br [Bromopyruvate] + CC(=O)Nc1cccc(-n2c(=O)n(C3CC3)c(=O)c3c(Nc4ccc(I)cc4F)n(C)c(=O)c(C)c32)c1 [Trametinib] (partner 0.02 µM) in the same assay as above. Conditions: first compound 1 µM.
Method in brief: as §1

Row | Cell Line | relative viability
158 | NCI-H522 | 0.697
159 | NCI-H838 | 0.521
160 | NCI-H1650 | 0.548
161 | NCI-H2009 | 0.277
